The structures appear in SMILES notation. Values after ≈ are worked out from the molar mass of the structure shown.

Assay [1] has as its system SK-OV-3. The assay is described as follows: In vitro cytotoxicity, MTT assay. The class given is cell-based. The note with it: Homo sapiens, SK-OV-3 (ovary), 48 hours. In general terms: Formazan colour is commonly taken as a measure of viable cells.
Assay [2] concerns MCF-7. Kind of assay: In vitro cytotoxicity, MTT assay. In kind it is cell-based. The settings on record: Homo sapiens, MCF7, MCF-7 (breast), 48 hours.
Assay [3] relates to MDA-MB-231. Kind of assay: In vitro cytotoxicity, MTT assay. In kind it is cell-based. The note with it: Homo sapiens, MDA-MB-231 (breast), 48 hours.
Assay [4] has as its system A-549. The assay is described as follows: In vitro cytotoxicity, MTT assay. The class given is cell-based. The settings on record: Homo sapiens, A549, A-549 (lung), 48 hours.
The subject of assay [5] is NCI-H1437. Kind of assay: In vitro cytotoxicity, MTT assay. In kind it is cell-based. The settings on record: Homo sapiens, NCI-H1437 (lung), 48 hours.
For assay [6], the system named is NCI-H838. Kind of assay: In vitro cytotoxicity, MTT assay. The note with it: Homo sapiens, NCI-H838 (lung), 48 hours. The class given is cell-based.
Assay [7] relates to subcutaneously implanted solid tumors induced by MDA-MB-231 cells. The assay is described as follows: In vivo antitumor efficacy test, breast tumor-bearing nude mice. The note with it: MDA-MB-231 tumors in nude mice, intraperitoneally twice a week for 28 days; paclitaxel 5 mg/kg alone or paclitaxel 0.2 mg/kg + geraniol 45 mg/kg; p<0.001.
Experimental: The antitumor efficacy of composition comprising paclitaxel and geraniol against the subcutaneously implanted solid tumors induced by MDA-MB-231 cells in nude mice was evaluated. Treatments were initiated when the tumors inoculated in nude mice reached a tumor volume of 50-100 mm^3, and this day was designated as Day 1. Mice were divided into 3 different groups consisting of five mice in each group, and administered intraperitoneally with normal saline (control), paclitaxel (5 mg/kg) in normal saline, or composition comprising paclitaxel (0.2 mg/kg) and geraniol (45 mg/kg) twice a week for 28 days. The size of tumor and change of body weight of each mouse were recorded.
The anticancer efficacy of the paclitaxel-geraniol composition was studied in breast tumor-bearing nude mice. […] In the control, mice were injected with normal saline. In Paclitaxel, mice were injected with paclitaxel (5 mg/kg) in normal saline. In the Paclitaxel-geraniol composition, mice were injected with composition comprising paclitaxel (0.2 mg/kg) and geraniol in normal saline.

Usually IC50 stands for the point on the concentration scale where inhibition reaches its midpoint. A high value points to weaker potency. With `O=c1[nH]cc(F)c(=O)[nH]1` [Composition 5-FU, Fluorouracil], the IC50 in assay [1] was 66.6 µg/mL (≈ 512 µM); in assay [2] it was 38.7 µg/mL (≈ 298 µM); in assay [3] it was 328 µg/mL (≈ 2520 µM); in assay [4], 5.9 µg/mL (≈ 45.4 µM); in assay [5], more than 100 µg/mL; in assay [6] it was 12.1 µg/mL (≈ 93 µM).
For `CC(=O)O[C@H]1C(=O)[C@@]2(C)[C@H]([C@H](OC(=O)c3ccccc3)[C@]3(O)C[C@H](OC(=O)[C@H](O)[C@@H](NC(=O)c4ccccc4)c4ccccc4)C(C)=C1C3(C)C)[C@]1(OC(C)=O)CO[C@@H]1C[C@@H]2O` [Paclitaxel, paclitaxel], the IC50 in assay [1] worked out at 56.5 µg/mL (≈ 66.2 µM); in assay [2], 46 µg/mL (≈ 53.9 µM); in assay [3], 31.9 µg/mL (≈ 37.4 µM); in assay [4], 20.1 µg/mL (≈ 23.5 µM); in assay [5], 36.8 µg/mL (≈ 43.1 µM); in assay [6], 30.9 µg/mL (≈ 36.2 µM). Further, the “tumor growth (size of tumor) versus control group” value in assay [7] is recorded as “significantly suppressed the tumor growth in a similar manner”.

The record behind these values is patent publication US20080113042A1, “PHARMACEUTICAL COMPOSITION AND METHOD FOR CANCER TREATMENT BASED ON COMBINATIONAL USE OF CONVENTIONAL ANTICANCER AGENTS AND GERANIUM OIL OR COMPOUNDS THEREOF” (priority 2006, published 2008).
